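Test compounds were applied to cells in 96-well plates for 48 hours at 5 doses. GI50 is the concentration that inhibits growth by half.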 Calls of active or inactive are those of the source. Cut-off read from the data, not from the text of the source: active = GI50 up to about 1.1 µM and inactive = higher.
Legend:
Assay in all cases: NCI-60 cell line screen, 48 h
ACHN = tested on: ACHN
NCI-H226 = tested on: NCI-H226
MDA-N = tested on: MDA-N
MCF7 = tested on: MCF7
Hs-578T = tested on: Hs-578T
A498 = tested on: A498
OVCAR-4 = tested on: OVCAR-4
LOX IMVI = tested on: LOX IMVI
T47D = tested on: T47D
MDA-MB-231 = tested on: MDA-MB-231
MDA-MB-435 = tested on: MDA-MB-435
A549 = tested on: A549
OVCAR-8 = tested on: OVCAR-8
Malme-3M = tested on: Malme-3M
UO-31 = tested on: UO-31
HOP-62 = tested on: HOP-62
SK-MEL-28 = tested on: SK-MEL-28
NCI-H23 = tested on: NCI-H23
SF-268 = tested on: SF-268
RXF 393 = tested on: RXF 393
SK-MEL-5 = tested on: SK-MEL-5
SNB-19 = tested on: SNB-19
M14 = tested on: M14
MOLT-4 = tested on: MOLT-4
CCRF-CEM = tested on: CCRF-CEM
HT-29 = tested on: HT-29
NCI-H522 = tested on: NCI-H522
COLO 205 = tested on: COLO 205
HL-60 = tested on: HL-60
UACC-257 = tested on: UACC-257
NCI/ADR-RES = tested on: NCI/ADR-RES
HCT-15 = tested on: HCT-15
UACC-62 = tested on: UACC-62
K562 = tested on: K562
EKVX = tested on: EKVX
HCC 2998 = tested on: HCC 2998
CAKI-1 = tested on: CAKI-1
OVCAR-3 = tested on: OVCAR-3
SK-MEL-2 = tested on: SK-MEL-2
SF-539 = tested on: SF-539
HOP-92 = tested on: HOP-92
RPMI-8226 = tested on: RPMI-8226
HCT-116 = tested on: HCT-116
SNB-75 = tested on: SNB-75
KM12 = tested on: KM12
SW-620 = tested on: SW-620
SN12C = tested on: SN12C
OVCAR-5 = tested on: OVCAR-5
U-251 = tested on: U-251
IGROV-1 = tested on: IGROV-1
SF-295 = tested on: SF-295
SK-OV-3 = tested on: SK-OV-3
786-0 = tested on: 786-0
BT-549 = tested on: BT-549
SR = tested on: SR
PC-3 = tested on: PC-3
NCI-H460 = tested on: NCI-H460
DU-145 = tested on: DU-145
TK-10 = tested on: TK-10
SNB-78 = tested on: SNB-78
KM-20L2 = tested on: KM-20L2
LXFL 529 = tested on: LXFL 529
DMS-114 = tested on: DMS-114

Structure (SMILES): CC(C)(CO)NC1=C(Cl)C(=O)c2c(O)ccc(O)c2C1=O
- GI50 (ACHN): 1700 nM (inactive)
- GI50 (NCI-H226): 2160 nM (inactive)
- GI50 (MDA-N): 885 nM (active)
- GI50 (MCF7): 1330 nM (inactive)
- GI50 (Hs-578T): 743 nM (active)
- GI50 (A498): 1840 nM (inactive)
- GI50 (OVCAR-4): 1570 nM (inactive)
- GI50 (LOX IMVI): 450 nM (active)
- GI50 (T47D): 1930 nM (inactive)
- GI50 (MDA-MB-231): 1610 nM (inactive)
- GI50 (MDA-MB-435): 1150 nM (inactive)
- GI50 (A549): 1860 nM (inactive)
- GI50 (OVCAR-8): 1290 nM (inactive)
- GI50 (Malme-3M): 1870 nM (inactive)
- GI50 (UO-31): 1550 nM (inactive)
- GI50 (HOP-62): 1560 nM (inactive)
- GI50 (SK-MEL-28): 1890 nM (inactive)
- GI50 (NCI-H23): 1580 nM (inactive)
- GI50 (SF-268): 2610 nM (inactive)
- GI50 (RXF 393): 1850 nM (inactive)
- GI50 (SK-MEL-5): 1090 nM (active)
- GI50 (SNB-19): 1770 nM (inactive)
- GI50 (M14): 865 nM (active)
- GI50 (MOLT-4): 568 nM (active)
- GI50 (CCRF-CEM): 330 nM (active)
- GI50 (HT-29): 1310 nM (inactive)
- GI50 (NCI-H522): 316 nM (active)
- GI50 (COLO 205): 1220 nM (inactive)
- GI50 (HL-60): 233 nM (active)
- GI50 (UACC-257): 1710 nM (inactive)
- GI50 (NCI/ADR-RES): 1880 nM (inactive)
- GI50 (HCT-15): 557 nM
- GI50 (UACC-62): 1350 nM (inactive)
- GI50 (K562): 104 nM (active)
- GI50 (EKVX): 1870 nM (inactive)
- GI50 (HCC 2998): 1430 nM (inactive)
- GI50 (CAKI-1): 1960 nM (inactive)
- GI50 (OVCAR-3): 1550 nM (inactive)
- GI50 (SK-MEL-2): 2320 nM (inactive)
- GI50 (SF-539): 1390 nM (inactive)
- GI50 (HOP-92): 1850 nM (inactive)
- GI50 (RPMI-8226): 2050 nM (inactive)
- GI50 (HCT-116): 1570 nM (inactive)
- GI50 (SNB-75): 1310 nM (inactive)
- GI50 (KM12): 1430 nM (inactive)
- GI50 (SW-620): 327 nM (active)
- GI50 (SN12C): 1560 nM (inactive)
- GI50 (OVCAR-5): 1650 nM (inactive)
- GI50 (U-251): 1730 nM (inactive)
- GI50 (IGROV-1): 1580 nM (inactive)
- GI50 (SF-295): 1700 nM (inactive)
- GI50 (SK-OV-3): 1570 nM (inactive)
- GI50 (786-0): 1460 nM (inactive)
- GI50 (BT-549): 942 nM (active)
- GI50 (SR): 267 nM (active)
- GI50 (PC-3): 1870 nM (inactive)
- GI50 (NCI-H460): 2420 nM (inactive)
- GI50 (DU-145): 1900 nM (inactive)
- GI50 (TK-10): 1880 nM (inactive)

Structure (SMILES): Cc1ccccc1C(=O)C1CCCCC1O (centres undefined)
- GI50 (ACHN): > 100000 nM (inactive)
- GI50 (NCI-H226): > 100000 nM (inactive)
- GI50 (SNB-78): 23800 nM (inactive)
- GI50 (OVCAR-4): > 100000 nM (inactive)
- GI50 (LOX IMVI): > 100000 nM (inactive)
- GI50 (A549): > 100000 nM (inactive)
- GI50 (Malme-3M): > 100000 nM (inactive)
- GI50 (UO-31): > 100000 nM (inactive)
- GI50 (HOP-62): > 100000 nM (inactive)
- GI50 (KM-20L2): > 100000 nM (inactive)
- GI50 (NCI-H23): > 100000 nM (inactive)
- GI50 (SF-268): > 100000 nM (inactive)
- GI50 (RXF 393): > 100000 nM (inactive)
- GI50 (SK-MEL-5): > 100000 nM (inactive)
- GI50 (SNB-19): > 100000 nM (inactive)
- GI50 (M14): > 100000 nM (inactive)
- GI50 (MOLT-4): > 100000 nM (inactive)
- GI50 (HL-60): > 100000 nM (inactive)
- GI50 (LXFL 529): > 100000 nM (inactive)
- GI50 (HCT-15): > 100000 nM
- GI50 (UACC-62): > 100000 nM (inactive)
- GI50 (K562): > 100000 nM (inactive)
- GI50 (EKVX): > 100000 nM (inactive)
- GI50 (HCC 2998): > 100000 nM (inactive)
- GI50 (CAKI-1): > 100000 nM (inactive)
- GI50 (OVCAR-3): > 100000 nM (inactive)
- GI50 (SK-MEL-2): > 100000 nM (inactive)
- GI50 (HOP-92): > 100000 nM (inactive)
- GI50 (HCT-116): > 100000 nM (inactive)
- GI50 (SNB-75): > 100000 nM (inactive)
- GI50 (KM12): > 100000 nM (inactive)
- GI50 (SW-620): > 100000 nM (inactive)
- GI50 (SN12C): > 100000 nM (inactive)
- GI50 (OVCAR-5): > 100000 nM (inactive)
- GI50 (U-251): > 100000 nM (inactive)
- GI50 (DMS-114): > 100000 nM (inactive)
- GI50 (IGROV-1): > 100000 nM (inactive)
- GI50 (SK-OV-3): > 100000 nM (inactive)
- GI50 (786-0): > 100000 nM (inactive)
- GI50 (TK-10): > 100000 nM (inactive)
